Where a chain is given by its changes, count along the chain named.
Columns and labels:
WT PXR = target: T1, WT PXR (Homo sapiens, UniProt O75469); assay: Reporter gene assay (p3A4-pGL3, CYP3A4 promoter) in COS-1 cells expressing WT PXR; conditions: 1 μM ligand, without PGC1α (Fig. S7)
T1 sequence (O75469 1-434): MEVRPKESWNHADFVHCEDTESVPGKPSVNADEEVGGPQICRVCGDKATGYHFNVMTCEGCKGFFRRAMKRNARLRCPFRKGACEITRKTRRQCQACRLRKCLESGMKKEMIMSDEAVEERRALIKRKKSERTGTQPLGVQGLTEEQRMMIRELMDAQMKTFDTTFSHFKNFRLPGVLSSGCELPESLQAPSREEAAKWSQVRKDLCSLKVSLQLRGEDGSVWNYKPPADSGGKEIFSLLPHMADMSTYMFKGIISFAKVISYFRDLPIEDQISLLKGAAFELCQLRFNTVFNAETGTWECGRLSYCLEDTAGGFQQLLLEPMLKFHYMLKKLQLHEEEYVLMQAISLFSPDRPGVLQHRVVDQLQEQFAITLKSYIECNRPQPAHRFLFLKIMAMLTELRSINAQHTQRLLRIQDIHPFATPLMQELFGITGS
Protocol: (§1) COS-1 cells were cultured in Dulbecco's Modified Eagle medium (DMEM, Fujifilm Wako Pure Chemical) supplemented with 10% fetal bovine serum (FBS, GE Healthcare), MEM nonessential amino acids, and antibiotic-antimycotic (Thermo Fisher Scientific). Twenty-four hours after seeding, the culture medium was replaced with prewarmed DMEM without FBS, and plasmids were transfected with Lipofectamine 3000 (Thermo Fisher Scientific) according to the manufacturer’s instructions.
(§2) Firefly luciferase luminescence was normalized to Renilla luciferase luminescence.

PXR-F420A = target: T2, PXR-F420A (Homo sapiens, UniProt O75469, F420A); assay: Reporter gene assay (p3A4-pGL3, CYP3A4 promoter) in COS-1 cells expressing PXR-F420A; conditions: 1 μM ligand, without PGC1α (Fig. S7)
T2 sequence (O75469 1-434 F420A): T1 sequence (O75469 1-434) with F420A
Protocol: as §1, §2

Q: Which results are given for `Clc1ccccc1C(c1ccccc1)(c1ccccc1)n1ccnc1` [clotrimazole, Clotrimazole]?
A: Induction of reporter activity, WT PXR (WT PXR): weak induction; Induction of reporter activity, PXR-F420A (PXR-F420A): but not for PXR-F420A

Source: publication PMC8390552, “Helix 12 stabilization contributes to basal transcriptional activity of PXR” (The Journal of Biological Chemistry, 2021)
